Reference: the supplement of paper PMC10307832

Key:
Experiment in all cases: relative viability (nuclei count vs DMSO), 5 days (fraction); higher = more cells survive
GSK-J4 = compound: CCOC(=O)CCNc1cc(N2CCc3ccccc3CC2)nc(-c2ccccn2)n1 [GSK-J4]
Outline: (§1)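 Lung cancer cell lines were seeded into 1536-well plates, kept overnight at 37 °C and pinned with five library-drug doses (not always all listed) spaced by √10. After 5 days, nuclei were Hoechst-stained, imaged at 4× and counted with MetaXpress. Viability is treated-well nuclei over vehicle-well nuclei, taken as a median across plates. Plates needed control CV below 25% and at least one doubling.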

AZ3146 = compound: CN1CCC(CC1)OC2=CC(=C(C=C2)NC3=NC=C4C(=N3)N(C(=O)N4C)C5CCCC5)OC [AZ3146]
Outline: as §1

GSK-J4 + Alpelisib = compound: CCOC(=O)CCNc1cc(N2CCc3ccccc3CC2)nc(-c2ccccn2)n1 [GSK-J4] + Cc1nc(NC(=O)N2CCC[C@H]2C(N)=O)sc1-c1ccnc(C(C)(C)C(F)(F)F)c1 [Alpelisib] (partner 2 µM)
Outline: (§2)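 Lung cancer cell lines were seeded in 1536-well plates and dosed by pin tool the next day, with either a single drug or a fixed anchor-drug dose combined with five library-drug doses (not always all listed) spaced in √10 steps. Five days later, one step fixed the cells and stained their nuclei (final 0.05% Triton X-100, 1% formaldehyde, 1 ug/ml Hoechst), and nuclei were counted on 4× images. Relative viability is the nuclei count in treated wells divided by the count in vehicle wells, and each value is the median of duplicate plates.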

AZ3146 + Bortezomib = compound: CN1CCC(CC1)OC2=CC(=C(C=C2)NC3=NC=C4C(=N3)N(C(=O)N4C)C5CCCC5)OC [AZ3146] + CC(C)C[C@H](NC(=O)[C@H](Cc1ccccc1)NC(=O)c1cnccn1)B(O)O [Bortezomib] (partner 0.002 µM)
Outline: as §2

Cell Line | relative viability (GSK-J4; 0.5 µM) | relative viability (GSK-J4; 1.581 µM) | relative viability (GSK-J4; 5 µM) | relative viability (GSK-J4; 15.81 µM) | relative viability (GSK-J4; 50 µM) | relative viability (AZ3146; 0.08 µM) | relative viability (AZ3146; 0.253 µM) | relative viability (AZ3146; 0.8 µM) | relative viability (AZ3146; 2.53 µM) | relative viability (AZ3146; 8 µM) | relative viability (GSK-J4 + Alpelisib; first compound 0.5 µM) | relative viability (GSK-J4 + Alpelisib; first compound 1.581 µM) | relative viability (GSK-J4 + Alpelisib; first compound 5 µM) | relative viability (GSK-J4 + Alpelisib; first compound 15.81 µM) | relative viability (GSK-J4 + Alpelisib; first compound 50 µM) | relative viability (AZ3146 + Bortezomib; first compound 0.08 µM) | relative viability (AZ3146 + Bortezomib; first compound 0.253 µM) | relative viability (AZ3146 + Bortezomib; first compound 0.8 µM) | relative viability (AZ3146 + Bortezomib; first compound 2.53 µM) | relative viability (AZ3146 + Bortezomib; first compound 8 µM)
NCI-H2023 | 0.942 | 0.853 | 1.07 | 0.906 | 0.856 | 0.935 | 0.912 | 0.969 | 0.871 | 0.296 | 0.604 | 0.471 | 0.75 | 0.582 | 0.583 | 0.938 | 1.05 | 1.03 | 0.997 | 0.268
NCI-H647 | 0.966 | 0.832 | 0.742 | 0.886 | 0.936 | 0.777 | 0.919 | 0.94 | 1.07 | 0.92 | 1.22 | 1.03 | 0.927 | 1.05 | 0.975 | 0.918 | 0.941 | 0.996 | 1.21 | 0.405
NCI-H661 | 0.969 | 0.922 | 0.904 | 0.927 | 0.723 | 1.02 | 0.988 | 0.92 | 0.98 | 1.05 | 0.727 | 0.602 | 0.578 | 0.5 | 0.53 | 0.71 | 0.893 | 0.92 | 0.922 | 0.692
NCI-H1975 | 0.972 | 0.857 |  | 0.953 | 1.09 | 0.859 | 0.993 | 1.06 | 1.02 | 0.844 | 0.615 | 0.613 |  | 0.678 | 0.837 | 0.36 | 0.425 | 0.383 | 0.384 | 0.256
BEN | 1.06 | 0.864 |  | 0.876 | 0.788 |  | 0.898 | 0.886 | 0.989 | 0.943 | 1.04 | 0.882 |  | 0.974 | 0.948 |  | 0.588 | 0.752 | 0.762 | 0.726
EBC-1 | 0.817 | 0.892 | 0.96 | 0.961 | 0.668 | 0.915 | 0.938 | 0.884 | 0.979 | 0.602 | 0.742 | 0.72 | 0.9 | 0.824 | 0.423 | 0.549 | 0.578 | 0.541 | 0.521 | 0.279
NCI-H1437 | 1.01 | 0.909 | 0.923 | 1.01 | 0.609 | 0.887 | 0.936 | 0.953 | 1.03 | 0.983 | 0.904 | 0.979 | 0.908 | 0.873 | 0.428 | 0.497 | 0.441 | 0.469 | 0.535 | 0.479
NCI-H1666 | 0.977 | 0.79 | 1.19 | 1 | 0.804 | 1.09 | 0.953 | 1.02 | 1.05 | 1.05 | 0.881 |  | 1.08 | 0.985 | 0.508 | 0.838 | 0.791 | 0.948 | 0.809 | 0.743
NCI-H2085 | 1.02 | 0.953 | 0.884 | 0.924 | 0.955 | 1 | 0.987 | 0.972 | 0.97 | 0.992 | 0.894 | 0.863 | 0.888 | 0.898 | 0.789 | 1 | 1.09 | 0.962 | 1.18 | 0.952
LXF-289 | 1.02 | 0.903 | 0.967 | 1.02 | 0.983 | 0.944 | 0.991 | 0.989 | 1.02 | 0.982 | 0.971 | 0.957 | 1.04 | 0.991 | 0.956 | 0.996 | 1.02 | 0.978 | 1.01 | 0.908
NCI-H322M | 1.05 | 1.04 | 1.1 | 0.839 | 0.818 | 0.872 | 0.927 | 0.823 | 0.958 | 0.827 | 0.901 | 0.718 | 0.734 | 0.747 | 0.733 | 1.29 | 1.18 | 1.18 | 1.29 | 1.18
LU99A | 0.819 | 0.872 |  | 0.884 | 0.756 | 0.783 | 1.04 | 0.989 | 0.964 | 1.11 | 0.448 | 0.494 | 0.535 | 0.498 | 0.322 | 0.91 | 1.16 | 1.21 | 1.1 | 1.18
NCI-H650 | 0.931 | 0.653 | 0.494 | 0.832 | 0.751 | 0.776 | 0.822 | 0.867 | 1.02 | 1.03 | 0.926 | 1.11 | 0.729 | 1.07 | 0.767 | 0.519 | 0.691 | 0.762 | 0.999 | 0.897
PC-14 | 1.02 | 0.916 | 0.769 | 0.985 | 1.01 | 0.958 | 0.967 | 1.02 | 1.04 | 0.784 | 0.916 | 0.909 | 0.946 | 0.873 | 0.913 | 0.872 | 0.891 | 0.846 | 0.997 | 0.721
HARA | 1.06 | 0.959 |  | 0.881 | 1.05 | 0.808 | 0.902 | 1.01 | 1.07 | 0.866 | 0.815 | 0.441 |  | 0.785 | 0.646 | 1.04 | 1.15 | 1.15 | 1.14 | 0.533
NCI-H1299 | 0.982 | 0.952 | 0.877 | 0.998 | 1 | 0.987 | 0.995 | 0.996 | 1.02 | 0.992 | 1.01 | 0.899 | 0.975 | 1.04 | 1.04 | 0.965 | 0.965 | 1.05 | 1.01 | 1.01
IA-LM | 0.887 | 0.84 | 1.17 | 0.821 | 0.315 | 0.971 | 0.998 | 0.987 | 0.957 | 0.742 | 0.77 | 0.693 | 0.887 | 0.693 | 0.149 | 0.643 | 0.775 | 0.759 | 0.695 | 0.264
HCC-44 | 1.01 | 0.864 | 0.861 | 1.02 | 1.01 | 0.969 | 0.917 | 1.09 | 1.02 | 0.89 | 0.791 | 0.781 | 0.709 | 0.776 | 0.711 | 0.875 | 0.908 | 0.881 | 0.909 | 0.884
CAL-12T | 0.94 | 0.838 | 1.05 | 0.93 | 0.834 | 1.03 | 0.978 | 1.07 | 1.09 | 0.776 | 1.12 | 1.11 | 1.43 | 1.29 | 1.29 | 1.28 |  | 0.897 | 1.08 | 0.644
NCI-H2405 | 1.07 | 0.945 |  | 0.943 | 0.987 | 1.08 | 0.87 | 0.999 | 1.12 | 1.11 | 0.814 | 0.619 |  | 0.897 | 0.935 | 1.02 | 1 | 0.944 | 0.994 | 1.11
201T | 1.01 | 0.983 | 0.928 | 0.947 | 0.943 | 0.997 | 0.993 | 0.941 | 0.964 | 0.983 | 0.977 | 0.831 | 1.02 | 0.988 | 0.9 | 1.1 | 1.07 | 1.11 | 1.16 | 1.12
NCI-H596 | 1.04 | 0.833 | 0.92 | 0.889 | 0.903 | 0.985 | 0.841 | 0.931 | 0.979 | 0.963 | 0.479 | 0.503 | 0.525 | 0.457 | 0.477 | 0.961 | 1.05 |  | 1.07 | 0.935
NCI-H838 | 1.04 | 0.895 | 0.635 | 0.887 | 0.883 | 0.994 | 0.939 | 0.914 | 0.963 | 0.734 | 1.02 | 0.927 |  | 0.962 | 0.905 | 0.908 | 0.832 | 0.882 | 0.738 | 0.302
HCC-366 | 1.03 | 0.851 |  | 0.988 | 0.989 | 0.9 | 0.939 | 1.02 | 0.973 | 0.988 | 0.391 | 0.25 |  | 0.305 | 0.365 | 0.983 | 1.05 | 1.08 | 1.06 | 0.735
NCI-H1651 | 0.986 | 0.856 | 0.973 | 0.948 | 0.96 | 0.902 | 0.879 | 0.968 | 0.952 | 1.02 | 0.888 | 0.814 | 0.957 | 0.93 | 0.892 | 0.827 | 1.02 | 0.995 | 0.921 | 0.969
ABC-1 | 1.04 | 0.869 | 0.803 | 0.797 | 0.403 | 0.892 | 0.901 | 1.02 | 1.02 | 0.867 | 1.2 | 0.898 | 1.04 | 0.971 | 0.735 | 0.28 | 0.398 | 0.247 | 0.239 | 0.356
LOU-NH91 | 1.12 | 1.03 | 0.724 | 0.868 | 0.952 | 1.01 | 0.935 | 0.957 | 0.986 | 0.96 | 0.743 | 0.689 | 0.649 | 0.688 | 0.672 | 1.02 | 0.489 | 0.533 | 0.478 | 0.51
NCI-H520 | 0.985 | 0.621 | 0.857 | 0.702 | 0.853 | 0.875 | 0.971 | 0.832 | 1.04 | 0.999 | 0.899 | 0.781 | 1.2 | 0.868 | 0.834 | 0.355 | 0.677 | 0.614 | 0.673 | 0.583
H3255 | 0.997 | 0.869 | 0.91 | 0.811 | 0.854 | 0.935 | 0.902 | 1.01 | 1.09 | 0.981 | 0.591 | 0.64 | 0.614 | 0.593 | 0.531 | 0.757 | 0.627 | 0.825 | 0.835 | 0.792
